Experimental data from PubChem BioAssay (NCI).
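Tested at 5 concentrations; 48 h exposure; 96-well plates; endpoints linearly interpolated, else capped at highest concentration. TGI denotes the concentration required for complete inhibition of growth.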

Tests used:
Test in all cases: NCI-60 cell line screen, 48 h
A498 renal = test system: A498 renal
DU-145 prostate = test system: DU-145 prostate
EKVX NSCLC = test system: EKVX NSCLC
HL-60(TB) leukemia = test system: HL-60(TB) leukemia
HS 578T breast = test system: HS 578T breast
LOX IMVI melanoma = test system: LOX IMVI melanoma
M14 melanoma = test system: M14 melanoma
MDA-N = test system: MDA-N
MOLT-4 leukemia = test system: MOLT-4 leukemia
NCI-H522 lung = test system: NCI-H522 lung
NCI/ADR-RES ovarian = test system: NCI/ADR-RES ovarian
SF-268 CNS = test system: SF-268 CNS
SF-295 CNS = test system: SF-295 CNS
SK-MEL-5 melanoma = test system: SK-MEL-5 melanoma
SN12C renal = test system: SN12C renal
SNB-75 CNS = test system: SNB-75 CNS
T-47D breast = test system: T-47D breast
TK-10 renal = test system: TK-10 renal
UACC-257 melanoma = test system: UACC-257 melanoma
UACC-62 melanoma = test system: UACC-62 melanoma

| Structure (SMILES) | TGI (A498 renal) [µM] | TGI (DU-145 prostate) [µM] | TGI (EKVX NSCLC) [µM] | TGI (HL-60(TB) leukemia) [µM] | TGI (HS 578T breast) [µM] | TGI (LOX IMVI melanoma) [µM] | TGI (M14 melanoma) [µM] | TGI (MDA-N) [µM] | TGI (MOLT-4 leukemia) [µM] | TGI (NCI-H522 lung) [µM] | TGI (NCI/ADR-RES ovarian) [µM] | TGI (SF-268 CNS) [µM] | TGI (SF-295 CNS) [µM] | TGI (SK-MEL-5 melanoma) [µM] | TGI (SN12C renal) [µM] | TGI (SNB-75 CNS) [µM] | TGI (T-47D breast) [µM] | TGI (TK-10 renal) [µM] | TGI (UACC-257 melanoma) [µM] | TGI (UACC-62 melanoma) [µM] |
| --- | --- | --- | --- | --- | --- | --- | --- | --- | --- | --- | --- | --- | --- | --- | --- | --- | --- | --- | --- | --- |
| COC(=O)C1Cc2c([nH]c3ccccc23)C(c2cccc(O)c2)N1 (stereo not given) | > 100 | 55.3 | > 100 | 48.2 | > 100 | > 100 | 47.4 | 40.1 | > 100 | > 100 | 49.2 | > 100 | > 100 | > 100 | > 100 | 74.3 | > 100 | > 100 | > 100 | > 100 |
| O=C(O)C(Cc1ccc2c(c1)CCC2)(Cc1ccc2c(c1)CCC2)C(=O)O | > 100 | > 100 | > 100 | > 100 | > 100 | > 100 | > 100 | > 100 | > 100 | > 100 | > 100 | > 100 | > 100 | > 100 | > 100 | > 100 | > 100 | > 100 | > 100 | > 100 |
| CCC1(OC(=O)CN2CCN(CCO)CC2)C(=O)OCc2c1cc1n(c2=O)Cc2cc3ccccc3nc2-1 (stereo not given) | 1.78 | 2.24 | 55.9 | 3.24 | > 85.8 | 1.58 | 1.92 | 13.1 | 1.59 | 3.05 | 7.99 | 13.2 | 15.6 | 1.15 | 29.8 | 1.92 | 4.92 | > 100 | 8.05 | 1.05 |
| O=C(NCCN1C(=O)CN=C(c2ccc(Cl)cc2)c2cc(Cl)ccc21)OCc1ccccc1 | 24.5 | 37.7 | 66.6 | 38.1 | 40.7 | 33.9 | 34.9 | 31.9 | > 100 | 49.9 | 35.7 | 29.9 | 29.4 | 30.2 | 28.7 | 42.2 | > 100 | 37.3 | 34.1 | 38.7 |
| N#Cc1cccc(C2ON=C(c3ccc([N+](=O)[O-])cc3)N2C23CC4CC(CC(C4)C2)C3)c1 (stereo not given) | > 100 | > 100 | > 100 | > 100 | > 100 | > 100 | > 100 | > 100 | > 100 | > 100 | > 100 | > 100 | > 100 | > 100 | > 100 | > 100 | > 100 | > 100 | > 100 | > 100 |
| O=C(c1ccc(Cl)cc1Cl)N(Cc1cccnc1)C(=S)N(Cc1cccnc1)C(=O)c1ccc(Cl)cc1Cl | 24.4 | 13 | 30.2 | 15.3 | 66.4 | 16.7 | 9.26 | 6.76 | > 100 | 9.8 | 76 | 20.4 | 41.5 | 11.9 | 18.3 | 14 | 45.7 | 8.7 | 23.5 | 23.8 |
| CNNC1=NS(=O)(=O)c2cc(C)c(Cl)cc2S1 | > 10 | > 10 | > 10 | > 10 | > 10 | > 10 | > 10 | > 10 | > 10 | > 10 | > 10 | > 10 | > 10 | > 10 | > 10 | > 10 | > 10 | > 10 | > 10 | > 10 |
| Cc1cn(CC2=NCCN2)c(=O)[nH]c1=O | > 100 | > 100 | > 100 | > 100 | > 100 | > 100 | > 100 | > 100 | > 100 | > 100 | > 100 | > 100 | > 100 | > 100 | > 100 | > 100 | > 100 | > 100 | > 100 | > 100 |
| COc1ccc2c(c1)c1nn(CCN(C)C)c3ccc4c(=O)n(CCN(C)C)c(=O)n2c4c13 | 0.526 | 0.603 | 0.405 | 0.34 | 0.244 | 0.469 | 0.324 | 0.186 | 0.197 | 0.0747 | 0.277 | 0.211 | 0.224 | 0.784 | 0.517 | 0.0778 | > 25.8 | 0.696 | 0.717 | 0.474 |
| Cn1c(=O)n2n(c1=O)Cc1cccc3cccc(c13)C2 | > 100 | > 100 | > 100 | 4.18 | > 100 | > 100 | > 100 | > 100 | > 100 | > 100 | > 100 | > 100 | > 100 | > 100 | > 100 | > 100 | > 100 | > 100 | > 100 | > 100 |
| Cc1cccc(/C=N/NC(=S)NCc2ccccn2)n1 | > 100 | > 100 | > 100 | > 100 | > 100 | > 100 | 42.6 | > 100 | > 100 | > 100 | > 75.4 | > 93 | > 100 | 70.9 | > 100 | 73.6 | > 100 | > 100 | > 100 | 54.3 |
| CN(C)CCOc1ccc(I)cc1Cc1ccccc1 | 27.1 | 31.6 | 28.8 | 18.1 | 29.3 | 19.2 | 6 | 17.4 | 20.2 | 25 | 29.8 | 27.4 | 30.1 | 14.2 | 25 | 6.79 | 16.2 | 25.5 | 29.2 | 13.1 |
| Cc1cc(C)c(S(=O)(=O)N[C@@H](/C=C(\Br)CO)C(C)C)c(C)c1 | 68 | > 100 | > 100 | 40.3 | 54.5 | 36.3 | 91.3 | 69.8 | 75.3 | 37 | > 100 | > 100 | > 100 | 30.5 | 32 | > 100 | 68.4 | > 100 | 54.6 | 28.2 |
| COC(=O)C1Cc2ccc(C)cc2C1=O (stereo not given) | > 100 | > 100 | > 100 | > 100 | > 100 | > 100 | > 100 | > 100 | > 100 | > 100 | > 100 | > 100 | > 100 | > 100 | > 100 | > 100 | > 100 | > 100 | > 100 | > 100 |
| N#Cc1ncn(-c2ccccc2)c1N | > 100 | > 100 | > 100 | > 100 | > 100 | > 100 | > 100 | > 100 | > 100 | > 100 | > 100 | > 100 | > 100 | > 100 | > 100 | > 100 | > 100 | > 100 | > 100 | > 100 |
| COc1ccccc1/C=C1\Sc2scc(-c3cccc([N+](=O)[O-])c3)[n+]2C1=O | 48.9 | 26.6 | 28 | 1.17 | > 62.6 | 4.39 | 18.6 | 12.3 | 3.44 | 3.61 | 34.2 | 18 | 40.2 | 8.86 | 11.5 | 34.4 | 33.1 | 10.7 | 19.8 | 22.6 |
| CC(C)C1CC=NN1C(=O)OC(C)(C)C (stereo not given) | > 100 | > 100 | > 100 | > 100 | > 100 | > 100 | > 100 | > 100 | > 100 | > 100 | > 100 | > 100 | > 100 | > 100 | > 100 | > 100 | > 100 | > 100 | > 100 | > 100 |
| O=C1C(C(O)(C(F)(F)Cl)C(F)(F)Cl)CCC1C(O)(C(F)(F)Cl)C(F)(F)Cl (stereo not given) | > 10 | > 10 | > 10 | > 10 | 5.44 | > 10 | > 10 | > 10 | > 10 | > 10 | > 10 | > 10 | 5.99 | > 10 | > 10 | > 10 | > 10 | > 10 | > 10 | > 10 |
